Test results published in US20160102073A1, “2-HYDROXYMETHYL-SUBSTITUTED OREXIN RECEPTOR ANTAGONISTS” (MERCK SHARP & DOHME CORP., priority 2013, published 2016).

Assays:
[1] = biological target: T1, human orexin-1 receptor (hOX1R) (Homo sapiens, UniProt O43613); experiment: FLIPR Ca2+ Flux Assay, CHO cells expressing hOX1R; type: cell-based; conditions: agonist 70 pM Ala-6,12 orexin-A
T1 construct: expressed in transfected cells; host or cells: Chinese hamster ovary (CHO) cells, grown under G418 selection
T1 sequence (O43613 1-425): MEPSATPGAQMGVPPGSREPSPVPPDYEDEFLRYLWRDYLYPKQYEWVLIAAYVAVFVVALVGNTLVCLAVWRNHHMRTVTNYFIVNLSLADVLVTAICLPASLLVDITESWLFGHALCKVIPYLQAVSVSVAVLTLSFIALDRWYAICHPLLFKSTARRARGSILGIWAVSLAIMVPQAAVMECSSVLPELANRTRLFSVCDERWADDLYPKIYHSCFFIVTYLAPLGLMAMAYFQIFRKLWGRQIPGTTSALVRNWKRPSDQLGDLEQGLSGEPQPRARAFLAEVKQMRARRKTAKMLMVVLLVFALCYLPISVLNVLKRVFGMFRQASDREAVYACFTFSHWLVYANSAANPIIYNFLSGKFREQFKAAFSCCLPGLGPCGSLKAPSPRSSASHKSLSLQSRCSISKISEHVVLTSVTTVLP
Description: (§1) Chinese hamster ovary (CHO) cells expressing the human orexin-1 receptor (hOX1R) or the human orexin-2 receptor (hOX2R) were grown in Iscove's modified DMEM containing 2 mM L-glutamine, […], 1% hypoxanthine-thymidine supplement, 100 U/ml penicillin, 100 μg/ml streptomycin and 10% heat-inactivated fetal calf serum (FCS). The cells were seeded at 20,000 cells/well into Becton-Dickinson black 384-well clear bottom sterile plates coated with poly-D-lysine. All reagents were from GIBCO-Invitrogen Corp. The seeded plates were incubated overnight at 37° C. and 5% CO2. Ala-6,12 human orexin-A, used as the agonist, was prepared as a 1 mM stock solution in 1% bovine serum albumin (BSA) and diluted in assay buffer (HBSS containing 20 mM HEPES, 0.1% BSA and 2.5 mM probenecid, pH7.4) for use in the assay at a final concentration of 70 pM. Test compounds were prepared as 10 mM stock solution in DMSO, then diluted in 384-well plates, first in DMSO, then assay buffer.
On the day of the assay, cells were washed 3× with 100 μl assay buffer and then incubated for 60 minutes (37° C., 5% CO2) in 60 μl assay buffer containing 1 μM Fluo-4AM ester, 0.02% pluronic acid, and 1% BSA. The dye loading solution was then aspirated and cells were washed 3× with 100 μl assay buffer. 30 μl of that same buffer was left in each well. Within the Fluorescent Imaging Plate Reader (FLIPR, Molecular Devices), test compounds were added to the plate in a volume of 25 μl, incubated for 5 minutes, and then 25 μl of agonist was added. Fluorescence was measured for each well at 1 second intervals for 5 minutes, and the height of each fluorescence peak was compared to the height of the fluorescence peak induced by 70 pM of Ala-6,12 orexin-A with buffer in place of test compound.

[2] = biological target: T2, human orexin-2 receptor (hOX2R) (Homo sapiens, UniProt O43614); experiment: FLIPR Ca2+ Flux Assay, CHO cells expressing hOX2R; type: cell-based; conditions: agonist 70 pM Ala-6,12 orexin-A
T2 construct: expressed in transfected cells; host or cells: Chinese hamster ovary (CHO) cells, grown under G418 selection
T2 sequence (O43614 1-444): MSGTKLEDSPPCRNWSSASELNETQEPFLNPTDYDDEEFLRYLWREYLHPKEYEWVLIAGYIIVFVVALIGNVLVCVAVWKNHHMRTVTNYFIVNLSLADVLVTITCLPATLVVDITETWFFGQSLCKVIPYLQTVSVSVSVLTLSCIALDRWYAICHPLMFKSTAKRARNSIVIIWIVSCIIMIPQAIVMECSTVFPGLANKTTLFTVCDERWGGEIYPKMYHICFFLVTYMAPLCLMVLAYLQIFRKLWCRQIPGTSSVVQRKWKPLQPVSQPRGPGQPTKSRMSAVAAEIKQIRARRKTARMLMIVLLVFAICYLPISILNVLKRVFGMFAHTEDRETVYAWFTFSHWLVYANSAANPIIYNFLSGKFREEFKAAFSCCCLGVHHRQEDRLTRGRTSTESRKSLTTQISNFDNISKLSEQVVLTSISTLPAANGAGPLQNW
Description: The utility of the compounds in accordance with the present invention as orexin receptor OX1R and/or OX2R antagonists may be readily determined without undue experimentation by methodology well known in the art, including the “FLIPR Ca^2+ Flux Assay” (Okumura et al., Biochem. Biophys. Res. Comm. 280:976-981, 2001). In a typical experiment the OX1 and OX2 receptor antagonistic activity of the compounds of the present invention was determined in accordance with the following experimental method. For intracellular calcium measurements, Chinese hamster ovary (CHO) cells expressing the rat orexin-1 receptor or the human orexin-2 receptor, are grown in Iscove's modified DMEM containing 2 mM L-glutamine, […], 1% hypoxanthine-thymidine supplement, 100 U/ml penicillin, 100 μg/ml streptomycin and 10% heat-inactivated fetal calf serum (FCS). The cells are seeded at 20,000 cells/well into Becton-Dickinson black 384-well clear bottom sterile plates coated with poly-D-lysine. All reagents were from GIBCO-Invitrogen Corp. The seeded plates are incubated overnight at 37° C. and 5% CO2. Ala-6,12 human orexin-A as the agonist is prepared as a 1 mM stock solution in 1% bovine serum albumin (BSA) and diluted in assay buffer (HBSS containing 20 mM HEPES, 0.1% BSA and 2.5 mM probenecid, pH7.4) for use in the assay at a final concentration of 70 pM. Test compounds are prepared as 10 mM stock solution in DMSO, then diluted in 384-well plates, first in DMSO, then assay buffer. On the day of the assay, cells are washed 3 times with 100 μl assay buffer and then incubated for 60 min (37° C., 5% CO2) in 60 μl assay buffer containing 1 μM Fluo-4AM ester, 0.02% pluronic acid, and 1% BSA. The dye loading solution is then aspirated and cells are washed 3 times with 100 μl assay buffer. 30 μl of that same buffer is left in each well. Within the Fluorescent Imaging Plate Reader (FLIPR, Molecular Devices), test compounds are added to the plate in a volume of 25 μl, incubated for 5 min and finally 25 μl of agonist is added. Fluorescence is measured for each well at 1 second intervals for 5 minutes and the height of each fluorescence peak is compared to the height of the fluorescence peak induced by 70 pM Ala-6,12 orexin-A with buffer in place of antagonist. For each antagonist, IC50 value (the concentration of compound needed to inhibit 50% of the agonist response) is determined. Alternatively, compound potency can be assessed by a radioligand binding assay (described in Bergman et. al. Bioorg. Med. Chem. Lett. 2008, 18, 1425-1430) in which the inhibition constant (Ki) is determined in membranes prepared from CHO cells expressing either the OX1 or OX2 receptor. The intrinsic orexin receptor antagonist activity of a compound which may be used in the present invention may be determined by these assays.
as §1, with “buffer. […]” for “buffer.”

Row | IC50 [1] | IC50 [2] | Structure (SMILES)
1 | 2300 nM | 148 nM | COc1ccc(C(=O)N2C[C@H](Oc3ncccc3C(C)(C)O)CC[C@H]2C)c(C2CC2)c1 [Example 15, 2-[2-({(3R,6R)-1-[(2-cyclopropyl-4-methoxyphenyl)carbonyl]-6-methylpiperidin-3-yl}oxy)pyridin-3-yl]propan-2-ol]
2 | 349 nM | 135 nM | Cc1ccc(C(=O)N2C[C@H](Oc3ncccc3C(C)(C)O)CC[C@H]2C)c(C2CC2)c1 [Example 16, 2-[2-({(3R,6R)-1-[(2-cyclopropyl-4-methylphenyl)carbonyl]-6-methylpiperidin-3-yl}oxy)pyridin-3-yl]propan-2-ol]
3 | 50 nM | 37 nM | Cc1ccc(-n2nccn2)c(C(=O)N2C[C@H](Oc3ncccc3C(C)(C)O)CC[C@H]2C)c1 [Example 17, 2-(2-{[(3R,6R)-6-methyl-1-{[5-methyl-2-(2i-1,2,3-triazol-2-yl)phenyl]carbonyl}piperidin-3-yl]oxy}pyridin-3-yl)propan-2-ol]
4 | 12 nM | 13 nM | C[C@@H]1CC[C@@H](Oc2ncccc2C(C)(C)O)CN1C(=O)c1ccsc1-c1ncccn1 [Example 19, 2-[2-({(3R,6R)-6-Methyl-1-[(2-pyrimidin-2-ylthiophen-3-yl)carbonyl]piperidin-3-yl}oxy)pyridin-3-yl]propan-2-ol]
5 | 609 nM | 98 nM | C[C@@H]1CC[C@@H](Oc2ncccc2C(C)(C)O)CN1C(=O)c1cccc(F)c1-c1ncccn1 [Example 20, 2-[2-({(3R,6R)-1-[(3-fluoro-2-pyrimidin-2-yl-phenyl)carbonyl]-6-methyl-piperidin-3-yl}oxy)pyridin-3-yl]propan-2-ol]
6 | 140 nM | 82 nM | C[C@@H]1CC[C@@H](Oc2ncccc2C(C)(C)O)CN1C(=O)c1cc(F)ccc1-c1ncccn1 [Example 22, 2-[2-({(3R,6R)-1-[(5-fluoro-2-pyrimidin-2-yl-phenyl)carbonyl]-6-methylpiperidin-3-yl}oxy)pyridin-3-yl]propan-2-ol]
7 | 95 nM | 69 nM | C[C@@H]1CC[C@@H](Oc2ncccc2C(C)(C)O)CN1C(=O)c1ccccc1-c1ncccn1 [Example 23, 2-[2-({(3R,6R)-6-methyl-1-[(2-pyrimidin-2-ylphenyl)carbonyl]piperidin-3-yl}oxy)pyridin-3-yl] propan-2-ol]
8 | 77 nM | 35 nM | C[C@@H]1CC[C@@H](Oc2ncccc2C(C)(C)O)CN1C(=O)c1sccc1-c1ncccn1 [Example 24, 2-[2-({(3R,6R)-6-methyl-1-[(3-pyrimidin-2-yl-thiophen-2-yl)carbonyl]piperidin-3-yl}oxy)pyridin-3-yl] propan-2-ol]
9 | 55 nM | 77 nM | Cc1ccc(C(C)(C)O)c(O[C@@H]2CC[C@@H](C)N(C(=O)c3ccccc3-n3nccn3)C2)n1 [Example 25, 2-(6-Methyl-2-{[(3R,6R)-6-methyl-1-{[2-(2H-1,2,3-triazol-2-yl)phenyl]carbonyl}piperidin-3-yl]oxy}pyridin-3-yl)propan-2-ol]
10 | 463 nM | 22.5 nM | COc1ccnc(O[C@@H]2CC[C@@H](C)N(C(=O)c3ccccc3-n3nccn3)C2)c1C(C)O (stereo partly drawn) [Example 26, 1-(4-Methoxy-2-{[(3R,6R)-6-methyl-1-{[2-(2H-1,2,3-triazol-2-yl)phenyl]carbonyl}piperidin-3-yl]oxy}pyridin-3-yl)ethanol]
11 | 395 nM | 25 nM | COc1ccnc(O[C@@H]2CC[C@@H](C)N(C(=O)c3ccccc3-n3nccn3)C2)c1C(C)(C)O [Example 27, 2-(4-Methoxy-2-{[(3R,6R)-6-methyl-1-{[2-(2H-1,2,3-triazol-2-yl)phenyl]carbonyl}piperidin-3-yl]oxy}pyridin-3-yl)propan-2-ol]
12 | 1160 nM | 49 nM | C[C@@H]1CC[C@@H](Oc2ncccc2[C@@H](C)O)CN1C(=O)c1ccccc1-n1nccn1 [Example 29, (1R)-1-(2-{[(3R,6R)-6-Methyl-1-{[2-(2H-1,2,3-triazol-2-yl)phenyl]carbonyl}piperidin-3-yl]oxy}pyridin-3-yl)ethanol]
13 | 76 nM | 37 nM | C[C@H](O)c1cccnc1O[C@@H]1CC[C@@H](C)N(C(=O)c2ccccc2-n2nccn2)C1 [Example 30, (1S)-1-(2-{[(3R,6R)-6-Methyl-1-{[2-(2H-1,2,3-triazol-2-yl)phenyl]carbonyl}piperidin-3-yl]oxy}pyridin-3-yl)ethanol]

Row | Structure (SMILES) | IC50 [1] | IC50 [2]
14 | C[C@@H]1CC[C@@H](Oc2ncccc2C(C)(C)O)CN1C(=O)c1ccsc1-n1nccn1 [Example 18, 2-(2-{[(3R,6R)-6-methyl-1-{[2-(2H-1,2,3-triazol-2-yl)thiophen-3-yl]carbonyl}piperidin-3-yl]oxy}pyridin-3-yl)propan-2-ol] | 18 nM | 9 nM
